Marks after values point to notes of the source that are not given here.
Experiments:
[1] = system: Plasmopara viticola; experiment: Test D: grape downy mildew, spray after inoculation of grape seedlings; type: in vivo; conditions: 100 = 100% disease control
From the text: Upon removal, disease ratings were made. […] A dash (-) indicates no test results.

[2] = system: Phytophthora infestans; experiment: whole plant or invertebrate; type: in vivo; conditions: for Test F disease control rating: 100 = 100% disease control
[3] = system: Septoria tritici; experiment: Test J: wheat leaf blotch, preventive spray on wheat seedlings; type: in vivo; conditions: 100 = 100% disease control, 0 = no control; for Test J disease control rating: 40 ppm (marked *)
From the text: A dash (-) indicates no test results.

[4] = system: fusarium graminearium; experiment: Test I: wheat head scab, preventive spray on wheat seedlings; conditions: 100 = 100% disease control
Experimental: (the causal agent of wheat head scab) and incubated in a saturated atmosphere at 20° C. for 72 h, and then moved to a growth chamber at 22° C. for 5 days, after which disease ratings were made.

[5] = system: Puccinia recondita f. sp. tritici; experiment: Test K: wheat leaf rust, preventive spray on wheat seedlings; conditions: for Test K disease control rating: 40 ppm (marked *), 100 = 100% disease control, 0 = no control
[6] = system: Septoria nodorum; experiment: Test H: wheat glum blotch, preventive spray on wheat seedlings; conditions: 100 = 100% disease control, 0 = no control
Experimental: (the causal agent of wheat glum blotch) and incubated in a saturated atmosphere at 20° C. for 48 h, and then moved to a growth chamber at 22° C. for 5 days, after which disease ratings were made.

[7] = system: Erysiphe graminis f. sp. tritici; experiment: Test L: wheat powdery mildew, preventive spray on wheat seedlings; conditions: 100 = 100% disease control, 0 = no control; for Test L disease control rating: 40 ppm (marked *)
[8] = system: Pythium aphanidermatum; experiment: Test A: bluegrass pythium blight, preventive spray on bluegrass seedlings; conditions: for Test A disease control rating: 100 = 100% disease control
[9] = system: Rhizoctonia oryzae; experiment: Test G: turf brown patch, preventive spray on creeping bent grass seedlings; conditions: 100 = 100% disease control, 0 = no control; for Test G disease control rating: 40 ppm (marked *)
Experimental: (the causal agent of turf brown patch) and incubated in a saturated atmosphere at 27° C. for 24 h, and then moved to a growth chamber at 27° C. for 5 days, after which disease ratings were made.

[10] = system: Colletotrichum orbiculare; experiment: Test B: cucumber Colletotrichum anthracnose, preventive spray on cucumber seedlings; conditions: 100 = 100% disease control, 0 = no control; for Test B disease control rating: 40 ppm (marked *)
[11] = system: Botrytis cinerea; experiment: Test E: tomato botrytis, preventive spray on tomato seedlings; conditions: 40 ppm (marked *); 100 = 100% disease control, 0 = no control
[12] = 40 ppm (marked *), 0 = no control
[13] = 200 ppm, 0 = no control relative to controls

Row | SMILES | Test D disease control rating [1, 12] | Test F disease control rating [2, 12] | Test J disease control rating [3] | Test I disease control rating [4, 12] | Test K disease control rating [5] | Test H disease control rating ([6]; 40 ppm (marked *)) | Test L disease control rating [7] | Test A disease control rating [8, 12] | Test G disease control rating [9] | Test B disease control rating [10] | Test E disease control rating [11] | other results
1 | CC(C)Cn1c(-c2c(F)cccc2F)cnc(-n2cccn2)c1=O [Compound 342, 6-(2,6-Difluorophenyl)-1-(2-methylpropyl)-3-(1H-pyrazol-1-yl)-2(1H)-pyrazinone] | – | – | – | – | – | – | – | – | – | – | – | pest or weed control at 200 ppm ([1]; Plasmopara viticola, 168 h, 200 ppm, 0 = no control, read-out: Test D disease control rating): 0%; pest or weed control at 200 ppm ([2]; Phytophthora infestans, in Solanum lycopersicum, topical, 144 h, read-out: Test F disease control rating): 0%; pest or weed control at 200 ppm ([3]; Zymoseptoria tritici, 528 h, 200 ppm, read-out: Test J disease control rating): 82%; pest or weed control at 200 ppm ([4]; Fusarium, in Triticum aestivum, topical, 192 h, read-out: Test I disease control rating, 200 ppm, 0 = no control): 0%; pest or weed control at 200 ppm ([5]; Puccinia recondita, in Triticum aestivum, 192 h, read-out: Test K disease control rating): 98%; pest or weed control at 200 ppm ([6]; Parastagonospora nodorum, in Triticum aestivum, topical, 168 h, read-out: Test H disease control rating, 200 ppm): 0%; pest or weed control at 200 ppm ([7]; Blumeria graminis, in Triticum aestivum, 168 h, read-out: Test L disease control rating, 200 ppm): 96%; pest or weed control at 200 ppm ([8]; Pythium aphanidermatum, 120 h, read-out: Test A disease control rating): 0%; pest or weed control at 200 ppm ([9]; Waitea circinata, in Agrostis stolonifera, topical, 144 h, read-out: Test G disease control rating, 200 ppm): 95%; pest or weed control at 200 ppm ([10]; Colletotrichum orbiculare, in Cucumis sativus, 144 h, read-out: Test B disease control rating, 200 ppm): 0%
2 | O=c1c(-n2cccn2)nc(Cl)c(-c2c(F)cccc2F)n1Cc1ccccc1F [compound 330] | 0* % | 0* % | 100* % | 0* % | 100* % | 99* % | 71* % | 0* % | 41* % | 0* % | – | –
3 | Cc1ccn(-c2nc(Cl)c(-c3c(F)cccc3F)n(Cc3ccc(F)cc3)c2=O)n1 [compound 331] | 47* % | 0* % | 100* % | 0* % | 100* % | 100* % | 76* % | 0* % | 16* % | 90* % | – | –
4 | Cc1ccc(-n2c(-c3c(F)cccc3F)c(Cl)nc(-n3ccc(C)n3)c2=O)cc1 [compound 332] | 24* % | 0* % | 98* % | 0* % | 95* % | 94* % | 71* % | 0* % | 0* % | 0* % | – | –
5 | Cc1ccc(-n2c(-c3c(F)cccc3F)c(Cl)nc(-n3cccn3)c2=O)cc1 [compound 333] | 47* % | 0* % | 98* % | 0* % | 99* % | 99* % | 0* % | 0* % | 17* % | 37* % | – | –
6 | Cc1ccc(-n2c(-c3c(F)cccc3F)c(Cl)nc(-n3cccn3)c2=O)c(C)c1 [compound 334] | 0* % | 0* % | 96* % | 0* % | 91* % | – | 0* % | 0* % | 0* % | 0* % | – | Test H disease control rating ([6]; 200 ppm): 0%
7 | Cc1ccc(-n2c(-c3c(F)cccc3F)c(Cl)nc(-n3ccc(C)n3)c2=O)c(C)c1 [compound 335] | 0* % | 0* % | 99* % | 0* % | 91* % | 98* % | 71* % | 0* % | 0* % | 0* % | – | –
8 | O=c1c(-n2cccn2)nc(Cl)c(-c2c(F)cccc2F)n1-c1cccc(F)c1 [compound 337] | 0* % | 0* % | 100* % | 0* % | 95* % | 99* % | 0* % | 0* % | 29* % | 76* % | – | –
9 | Cc1ccn(-c2nc(Cl)c(-c3c(F)cccc3F)n(-c3cccc(F)c3)c2=O)n1 [compound 338] | 0* % | 0* % | 98* % | 0* % | 99* % | 100* % | 0* % | 0* % | 16* % | 80* % | – | –
10 | O=c1c(-n2cccn2)nc(Cl)c(-c2c(F)cccc2F)n1-c1ccc(F)c(F)c1 [compound 388] | 0* % | 0* % | 100* % | 0* % | – | 97* % | 0* % | 0* % | 0* % | 67* % | 99* % | –
11 | Cc1ccn(-c2nc(Cl)c(-c3c(F)cccc3F)n(-c3ccc(F)c(F)c3)c2=O)n1 [compound 389] | 0* % | 0* % | 100* % | 0* % | – | 94* % | 0* % | 0* % | 31* % | 98* % | 99* % | –
12 | CCCn1c(-c2c(F)cc(F)cc2F)c(Cl)nc(C(N)=O)c1=O [compound 413] | – | – | 93* % | – | – | 99* % | 98* % | – | 0* % | 0* % | 99* % | Test D disease control rating [1, 13]: 64%; Test F disease control rating [2, 13]: 95%; Test I disease control rating [4, 13]: 0%; Test A disease control rating [8, 13]: 68%
13 | CCC(C)Cn1c(-c2c(F)cc(F)cc2F)c(Cl)nc(C(N)=O)c1=O (stereo not shown) [compound 415] | – | – | 95* % | – | – | 100* % | 99* % | – | 0* % | 91* % | 99* % | Test D disease control rating [1, 13]: 95%; Test F disease control rating [2, 13]: 99%; Test I disease control rating [4, 13]: 0%; Test A disease control rating [8, 13]: 86%
